# Test results: patent US10329315B2, “Glycosphingolipids and methods of use thereof” (The Brigham and Women's Hospital, Inc., priority 2012, dated 2019)
# Test system: iNKT hybridoma 24.7
# Assay: iNKT cell activation in co-culture of BMDCs and iNKT hybridoma 24.7, IL-2 by ELISA
# Assay type: cell-based
# Settings: incubated with BMDCs 4 hours, then iNKT hybridoma 24.7 for 24 hours
# Protocol: Experiments were performed to determine whether fractions of B. fragilis sphingolipids are immunostimulatory (agonists) to iNKT cells. Lipid fractions were extracted from BF membranes, incubated with bone marrow dendritic cells (BMDCs) for 4 hours, and then co-incubated with iNKT hybridoma 24.7 for 24 hours. IL-2 was measured by ELISA as a readout of iNKT cell activation. KRN7000 refers to the known immunostimulatory alpha-GC. Cer-SL refers to the ceramide sphingolipid fraction. PE-SL refers to the phosphoethanolamine sphingolipid fraction. GL-SL refers to the glycosphingolipid fraction. C17 minor refers to alpha-GC having a C17 ceramide chain length. […] As expected, KRN7000 was stimulatory.
# Further studies confirmed that alpha-GC-Bf717 was detectable only in fecal samples from BFWT mice and not in samples from BFΔSPT mice. The estimated yield of alpha-GC-Bf717 was about 1 ng per gram of fecal pellet. To confirm that alpha-GC-Bf717 had antagonistic activity, co-cultures similar to those described above for bulk GL-SL fractions were performed.
structure (smiles),measurement,value
CCCCCCCCCCCCCCCCCCCCCCCCCC(=O)N[C@@H](CO[C@H]1O[C@H](CO)[C@H](O)[C@H](O)[C@H]1O)[C@H](O)[C@H](O)CCCCCCCCCCCCCC [KRN7000],iNKT cell activation (IL-2),stimulatory
